Source: patent US6737383B1, “Herbicidal oxadiazolidines” (priority 1999, dated 2004)

Columns and labels:
[1] = system: rape; experiment: Test B pre/postemergence rape; type: in vivo, Brassica napus
Outline: (§1)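 Herbicidal effect was estimated by eye on a ten-point control scale after plants spent twelve to sixteen days in a greenhouse following soil or foliar treatment. Foliar sprays targeted plants at one to four leaves; all doses were formulated in a non-phytotoxic solvent with surfactant.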

[2] = system: crabgrass; experiment: Test B pre/postemergence crabgrass; type: in vivo, Digitaria sanguinalis
Outline: as §1

[3] = system: sugar beet; experiment: Test B pre/postemergence sugar beet; type: in vivo, Beta vulgaris
Outline: as §1

[4] = system: soybean; experiment: Test B pre/postemergence soybean; type: in vivo, Glycine max
Outline: as §1

[5] = system: blackgrass; experiment: Test B pre/postemergence blackgrass; type: in vivo, Alopecurus myosuroides
Outline: as §1

[6] = system: corn; experiment: Test B pre/postemergence corn; type: in vivo, Zea mays
Outline: as §1

[7] = system: pigweed; experiment: Test B pre/postemergence pigweed; type: in vivo, Amaranthus retroflexus
Outline: as §1

[8] = system: wheat; experiment: Test B pre/postemergence wheat; type: in vivo, Triticum aestivum
Outline: as §1

[9] = system: bamyardgrass; experiment: Test B flood test barnyardgrass; type: in vivo, Echinochloa crus-galli
Outline: (§2)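 Read-out is a visual response score from 0 (no effect) to 10 (complete control), assigned by comparison with untreated controls. Treatment was applied at the 2-leaf stage, and plants stayed in the greenhouse for twelve to sixteen days before scoring.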

[10] = system: purple nutsedge; experiment: Test B pre/postemergence purple nutsedge; type: in vivo, Cyperus rotundus
Outline: as §1

[11] = system: bedstraw; experiment: Test B pre/postemergence bedstraw; type: in vivo, Galium aparine
Outline: as §1

[12] = system: wild oat; experiment: Test B pre/postemergence wild oat; type: in vivo, Avena fatua
Outline: as §1

[13] = system: surinam grass; experiment: Test B pre/postemergence surinam grass; type: in vivo, Brachiaria decumbens
Outline: as §1

[14] = system: smallflower flatsedge; experiment: Test B flood test smallflower flatsedge; type: in vivo, Cyperus difformis
Outline: as §2

[15] = system: cocklebur; experiment: Test B pre/postemergence cocklebur; type: in vivo, Xanthium strumarium
Outline: as §1

[16] = system: velvetleaf; experiment: Test B pre/postemergence velvetleaf; type: in vivo, Abutilon theophrasti
Outline: as §1

[17] = Preemergence, Rate 62 g/ha, scale of 0 to 10 where 0 is no effect and 10 is complete control
[18] = Preemergence, Rate 250 g/ha, scale of 0 to 10 where 0 is no effect and 10 is complete control
[19] = Preemergence, Rate 500 g/ha, scale of 0 to 10 where 0 is no effect and 10 is complete control
[20] = Rate 62 g/ha, Postemergence, scale 0 to 10, 0 no effect, 10 complete control
[21] = Rate 125 g/ha, Postemergence, scale of 0 to 10 where 0 is no effect and 10 is complete control
[22] = Rate 250 g/ha, Postemergence, scale of 0 to 10 where 0 is no effect and 10 is complete control
[23] = Rate 500 g/ha, Postemergence, scale 0 to 10, 0 no effect, 10 complete control
[24] = Rate 62 g/ha, headed Pre-emergence (flood test species), scale 0 to 10 (0 no effect, 10 complete control)
[25] = Rate 125 g/ha, Pre-emergence, flood test species, scale 0 to 10 where 0 is no effect and 10 is complete control
[26] = Rate 250 g/ha, Pre-emergence, flood-test species, scale 0 to 10, 0 is no effect, 10 is complete control
[27] = Rate 500 g/ha, Pre-emergence, flood test species, scale 0 to 10 (0 no effect, 10 complete control)

Cc1ccccc1-n1c(=O)on(C(=O)N(c2ccncc2)C(C)C)c1=O [Compound 301]
0: Rape plant response rating [1, 17] | Rape plant response rating (0 to 10 scale) ([1]; Preemergence, Rate 125 g/ha) | Rape plant response rating [1, 18] | Rape plant response rating [1, 19] | Rape plant response rating [1, 20] | Rape plant response rating [1, 21] | Plant response rating, Rape [1, 22] | Crabgrass plant response rating [2, 17] | Crabgrass plant response rating (0 to 10 scale) ([2]; Preemergence, Rate 125 g/ha) | Crabgrass plant response rating [2, 18] | Crabgrass plant response rating [2, 19] | Crabgrass plant response rating [2, 20] | Crabgrass plant response rating [2, 21] | Plant response rating, Crabgrass [2, 22] | Sugarbeets plant response rating [3, 17] | Sugarbeets plant response rating (0 to 10 scale) ([3]; Preemergence, Rate 125 g/ha) | Sugarbeets plant response rating [3, 18] | Sugarbeets plant response rating [3, 19] | Sugarbeets plant response rating [3, 20] | Sugarbeets plant response rating [3, 21] | Plant response rating, Sugarbeets [3, 22] | Soybean plant response rating [4, 17] | Soybean plant response rating (0 to 10 scale) ([4]; Preemergence, Rate 125 g/ha) | Soybean plant response rating [4, 18] | Soybean plant response rating [4, 19] | Soybean plant response rating [4, 20] | Soybean plant response rating [4, 21] | Plant response rating, Soybean [4, 22] | Blackgrass plant response rating [5, 17] | Blackgrass plant response rating (0 to 10 scale) ([5]; Preemergence, Rate 125 g/ha) | Blackgrass plant response rating [5, 18] | Blackgrass plant response rating [5, 19] | Blackgrass plant response rating [5, 20] | Blackgrass plant response rating [5, 21] | Plant response rating, Blackgrass [5, 22] | Blackgrass plant response rating [5, 23] | Corn plant response rating [6, 17] | Corn plant response rating (0 to 10 scale) ([6]; Preemergence, Rate 125 g/ha) | Corn plant response rating [6, 18] | Corn plant response rating [6, 19] | Corn plant response rating [6, 20] | Corn plant response rating [6, 21] | Plant response rating, Corn [6, 22] | Corn plant response rating [6, 23] | Redroot pigweed plant response rating [7, 17] | Redroot pigweed plant response rating (0 to 10 scale) ([7]; Preemergence, Rate 125 g/ha) | Redroot pigweed plant response rating [7, 18] | Redroot pigweed plant response rating [7, 19] | Redroot pigweed plant response rating [7, 20] | Redroot pigweed plant response rating [7, 21] | Plant response rating, Redroot pigweed [7, 22] | Wheat plant response rating [8, 17] | Wheat plant response rating (0 to 10 scale) ([8]; Preemergence, Rate 125 g/ha) | Wheat plant response rating [8, 18] | Wheat plant response rating [8, 19] | Wheat plant response rating [8, 20] | Wheat plant response rating [8, 21] | Plant response rating, Wheat [8, 22] | Barnyardgrass plant response rating [9, 24] | Barnyardgrass plant response rating [9, 25] | Barnyardgrass plant response rating [9, 26] | Barnyardgrass plant response rating [9, 27] | Nutsedge plant response rating [10, 17] | Nutsedge plant response rating (0 to 10 scale) ([10]; Preemergence, Rate 125 g/ha) | Nutsedge plant response rating [10, 18] | Nutsedge plant response rating [10, 19] | Nutsedge plant response rating [10, 20] | Nutsedge plant response rating [10, 21] | Plant response rating, Nutsedge [10, 22] | Bedstraw plant response rating [11, 17] | Bedstraw plant response rating (0 to 10 scale) ([11]; Preemergence, Rate 125 g/ha) | Bedstraw plant response rating [11, 18] | Bedstraw plant response rating [11, 19] | Bedstraw plant response rating [11, 20] | Bedstraw plant response rating [11, 21] | Wild oats plant response rating [12, 17] | Wild oats plant response rating (0 to 10 scale) ([12]; Preemergence, Rate 125 g/ha) | Wild oats plant response rating [12, 18] | Wild oats plant response rating [12, 19] | Wild oats plant response rating [12, 20] | Wild oats plant response rating [12, 21] | Plant response rating, Wild oats [12, 22] | B. signalgrass plant response rating [13, 17] | B. signalgrass plant response rating (0 to 10 scale, 0 is no effect, 10 is complete control) ([13]; Preemergence, Rate 125 g/ha) | B. signalgrass plant response rating [13, 18] | B. signalgrass plant response rating [13, 19] | B. signalgrass plant response rating [13, 20] | B. signalgrass plant response rating [13, 21] | Plant response rating, B. signalgrass [13, 22] | B. signalgrass plant response rating [13, 23] | S. Flatsedge plant response rating [14, 24] | S. Flatsedge plant response rating [14, 25] | S. Flatsedge plant response rating [14, 26] | S. Flatsedge plant response rating [14, 27] | Cocklebur plant response rating [15, 17] | Cocklebur plant response rating (0 to 10 scale) ([15]; Preemergence, Rate 125 g/ha) | Cocklebur plant response rating [15, 18] | Cocklebur plant response rating [15, 20] | Cocklebur plant response rating [15, 21] | Plant response rating, Cocklebur [15, 22] | Cocklebur plant response rating [15, 23] | Velvetleaf plant response rating [16, 17] | Velvetleaf plant response rating (0 to 10 scale) ([16]; Preemergence, Rate 125 g/ha) | Velvetleaf plant response rating [16, 18] | Velvetleaf plant response rating [16, 19] | Velvetleaf plant response rating [16, 20] | Velvetleaf plant response rating [16, 21] | Plant response rating, Velvetleaf [16, 22]
